Data set [1] is described as follows: Kinetic solubility of the compound at pH 1.2. Type of data set: physicochemical. The note with it: buffer, read-out: Kinetic_solubility.
A short description of data set [2]: Kinetic solubility of the compound at pH 6.8. Type of data set: physicochemical. Conditions: buffer, read-out: Kinetic_solubility.
Data set [3] has as its target T1, Sodium channel protein type 9 subunit alpha (Homo sapiens, UniProt Q15858). Nature of the data set: Inhibition of Nav1.7 (unknown origin) expressed in CHO cells after 45 mins by FLIPR assay. Type of data set: cell-based.
Data set [4] in a line: Cmax in Sprague-Dawley rat at 3 mg/kg, po. Conditions: in vivo. On the set-up: dose 3 mg/kg, route oral. Type of data set: ADME, organism-based.
Data set [5] concerns the target hERG (KCNH2) (Homo sapiens, UniProt Q12809). Nature of the data set: Inhibition of human ERG at 1 uM.
A short description of data set [6]: Tmax in Sprague-Dawley rat at 3 mg/kg, po. Type of data set: ADME, organism-based. The note with it: in vivo.
Data set [7] can be described thus: AUC in Sprague-Dawley rat at 3 mg/kg, po. Type of data set: ADME, organism-based. The note with it: in vivo.
Data set [8] deals with T1, Sodium channel protein type 9 subunit alpha. Nature of the data set: Inhibition of Nav1.7 (unknown origin) by electrophysiological assay.
Data set [9] deals with MDR1. Nature of the data set: Apparent permeability from apical to basolateral side in MDCK cells expressing MDR1. Type of data set: ADME, cell-based, Canis lupus familiaris. The note with it: dog.
Data set [10] relates to MDR1. The experiment in a line: Apparent permeability from basolateral to apical side in MDCK cells expressing MDR1. Type of data set: ADME, cell-based, Canis lupus familiaris. The note with it: dog.
Data set [11] has as its system MDR1. Nature of the data set: Efflux ratio of permeability from basolateral to apical side over apical to basolateral side in MDCK cells expressing MDR1. Type of data set: ADME, cell-based, Canis lupus familiaris. The note with it: dog.

Values after ≈ are worked out from the molar mass of the structure shown.

T1 sequence (Q15858 whole entry): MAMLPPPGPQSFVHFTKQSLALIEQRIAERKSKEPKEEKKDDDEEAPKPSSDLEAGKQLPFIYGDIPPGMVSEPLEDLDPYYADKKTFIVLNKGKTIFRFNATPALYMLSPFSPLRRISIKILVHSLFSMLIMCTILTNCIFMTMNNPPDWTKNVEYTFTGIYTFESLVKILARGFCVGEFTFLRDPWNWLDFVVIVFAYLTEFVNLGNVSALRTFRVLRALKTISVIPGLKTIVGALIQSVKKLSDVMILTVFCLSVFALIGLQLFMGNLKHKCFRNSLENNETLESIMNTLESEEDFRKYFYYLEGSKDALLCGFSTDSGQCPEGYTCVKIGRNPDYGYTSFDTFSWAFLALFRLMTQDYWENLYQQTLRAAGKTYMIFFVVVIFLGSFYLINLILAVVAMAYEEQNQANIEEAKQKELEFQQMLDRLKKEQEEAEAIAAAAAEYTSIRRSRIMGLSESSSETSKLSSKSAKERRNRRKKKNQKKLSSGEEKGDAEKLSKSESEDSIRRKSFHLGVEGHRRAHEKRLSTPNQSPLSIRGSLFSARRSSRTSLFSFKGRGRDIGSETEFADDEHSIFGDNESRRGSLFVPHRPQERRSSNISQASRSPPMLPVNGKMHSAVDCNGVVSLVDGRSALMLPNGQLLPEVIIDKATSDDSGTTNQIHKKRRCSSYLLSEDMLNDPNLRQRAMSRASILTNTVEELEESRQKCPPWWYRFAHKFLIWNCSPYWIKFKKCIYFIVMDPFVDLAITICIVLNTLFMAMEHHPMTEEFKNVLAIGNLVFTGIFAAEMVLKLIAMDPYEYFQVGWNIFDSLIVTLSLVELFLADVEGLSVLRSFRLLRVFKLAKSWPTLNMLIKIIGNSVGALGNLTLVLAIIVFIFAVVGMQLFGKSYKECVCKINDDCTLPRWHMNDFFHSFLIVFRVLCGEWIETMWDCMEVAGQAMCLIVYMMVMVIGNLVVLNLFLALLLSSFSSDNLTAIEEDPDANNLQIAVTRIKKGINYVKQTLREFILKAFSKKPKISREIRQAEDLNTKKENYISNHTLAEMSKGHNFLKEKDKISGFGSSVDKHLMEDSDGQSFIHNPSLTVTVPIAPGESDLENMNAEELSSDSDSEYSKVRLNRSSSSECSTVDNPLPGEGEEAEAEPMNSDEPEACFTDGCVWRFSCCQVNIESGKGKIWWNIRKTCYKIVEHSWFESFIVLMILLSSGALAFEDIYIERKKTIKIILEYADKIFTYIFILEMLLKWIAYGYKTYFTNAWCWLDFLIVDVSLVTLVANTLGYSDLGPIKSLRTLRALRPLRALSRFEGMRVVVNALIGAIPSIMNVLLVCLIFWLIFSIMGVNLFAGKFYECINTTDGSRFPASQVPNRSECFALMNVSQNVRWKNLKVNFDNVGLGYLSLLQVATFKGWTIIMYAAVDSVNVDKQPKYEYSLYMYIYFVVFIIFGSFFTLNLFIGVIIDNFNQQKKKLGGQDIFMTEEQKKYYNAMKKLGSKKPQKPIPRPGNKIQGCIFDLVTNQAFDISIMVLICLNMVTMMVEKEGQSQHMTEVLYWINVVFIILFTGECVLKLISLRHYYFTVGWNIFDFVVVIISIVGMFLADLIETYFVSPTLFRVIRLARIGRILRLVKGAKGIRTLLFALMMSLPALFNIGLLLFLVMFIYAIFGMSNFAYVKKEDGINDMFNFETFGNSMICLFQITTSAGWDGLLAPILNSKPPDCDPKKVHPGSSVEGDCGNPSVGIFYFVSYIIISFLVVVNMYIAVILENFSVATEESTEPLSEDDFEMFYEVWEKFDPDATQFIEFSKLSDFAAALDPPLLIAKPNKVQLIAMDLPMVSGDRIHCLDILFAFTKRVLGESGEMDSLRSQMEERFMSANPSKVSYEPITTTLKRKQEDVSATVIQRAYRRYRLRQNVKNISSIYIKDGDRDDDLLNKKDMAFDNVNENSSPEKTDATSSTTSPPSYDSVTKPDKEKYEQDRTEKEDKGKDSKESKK
hERG (KCNH2), sequence (Q12809 whole entry): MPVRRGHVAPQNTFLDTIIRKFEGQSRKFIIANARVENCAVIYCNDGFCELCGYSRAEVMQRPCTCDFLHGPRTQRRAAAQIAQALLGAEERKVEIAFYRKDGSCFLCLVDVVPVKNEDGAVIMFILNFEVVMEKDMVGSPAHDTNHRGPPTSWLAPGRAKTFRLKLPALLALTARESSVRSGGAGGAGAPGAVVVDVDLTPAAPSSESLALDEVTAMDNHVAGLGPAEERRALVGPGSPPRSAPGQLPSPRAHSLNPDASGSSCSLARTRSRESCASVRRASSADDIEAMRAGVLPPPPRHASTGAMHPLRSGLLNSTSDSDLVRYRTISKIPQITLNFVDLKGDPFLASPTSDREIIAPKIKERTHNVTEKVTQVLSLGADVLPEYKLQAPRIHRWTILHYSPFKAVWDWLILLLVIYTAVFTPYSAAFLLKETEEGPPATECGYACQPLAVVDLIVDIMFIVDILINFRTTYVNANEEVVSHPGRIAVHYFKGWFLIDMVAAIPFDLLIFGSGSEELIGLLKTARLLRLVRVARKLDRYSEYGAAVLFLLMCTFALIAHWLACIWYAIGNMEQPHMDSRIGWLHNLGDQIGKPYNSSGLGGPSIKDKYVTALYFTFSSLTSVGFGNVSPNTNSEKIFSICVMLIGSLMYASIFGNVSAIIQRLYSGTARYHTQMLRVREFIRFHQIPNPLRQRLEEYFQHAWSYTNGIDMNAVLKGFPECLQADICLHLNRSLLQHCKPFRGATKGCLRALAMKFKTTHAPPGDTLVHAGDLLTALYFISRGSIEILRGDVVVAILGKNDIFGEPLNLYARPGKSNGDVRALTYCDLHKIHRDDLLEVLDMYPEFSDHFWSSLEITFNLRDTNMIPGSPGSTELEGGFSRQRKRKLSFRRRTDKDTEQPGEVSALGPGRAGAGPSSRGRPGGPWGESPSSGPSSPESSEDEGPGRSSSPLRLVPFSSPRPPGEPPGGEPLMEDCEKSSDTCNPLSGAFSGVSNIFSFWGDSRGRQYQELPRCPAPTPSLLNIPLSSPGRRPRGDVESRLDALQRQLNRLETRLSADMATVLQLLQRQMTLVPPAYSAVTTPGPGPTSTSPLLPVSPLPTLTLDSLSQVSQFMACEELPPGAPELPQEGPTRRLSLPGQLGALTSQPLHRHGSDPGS

For the molecule `NC(=O)c1cccc(-c2ccc3c(c2)CNCCN3c2ccc(C(F)(F)F)cc2)n1`, the values for the solubility kinetic in [1] and in data set [2] were 18 µM (≈ 7.42 µg/mL) and 0.59 µM (≈ 0.243 µg/mL), respectively.
A word on the IC50: it is the midpoint of a concentration-inhibition curve. A low value points to greater potency in that assay. On to `CC(=O)N1CCN(c2ccc(C(F)(F)F)cc2)c2ccc(-c3cccc(C(N)=O)n3)cc2C1`, for which it took 380 nM to reach half-maximal inhibition in data set [3] (IC50). This counts as sub-micromolar.
The term Cmax denotes the peak of the concentration-time curve. What is called inhibition is the relative decrease from the control value, in per cent. A word on the Tmax: it is the time from dosing to the highest level. In general, AUC refers to concentration integrated over time. Low values mean low exposure, high ones high exposure. `NC(=O)N1CCN(c2ccc(C(F)(F)F)cc2)c2ccc(-c3cccc([C@H](O)CO)n3)cc2C1`: the solubility kinetic in [1] came out at 66 µM (≈ 31.2 µg/mL); in data set [2], 1 µM (≈ 0.472 µg/mL). Also, the peak level in data set [4] (Cmax) was 21 ng/mL. Also, in [5], the inhibition at 1 µM came to 22.6%. Further, the Tmax in data set [6] came out at 2.5 h. Moreover, in [7], the AUC was 133 ng·h/mL.
Broadly, the Ki is a measure of affinity in units of concentration, obtained from inhibition or displacement. Molecule `CS(=O)(=O)N1CCN(c2ccc(C(F)(F)F)cc2)c2ccc(-c3cccc([C@H](O)CO)n3)cc2C1` showed a Ki in [8] of 230 nM.
Same read-out and setting: for `CNC(=O)CN1CCN(c2ccc(C(F)(F)F)cc2)c2ccc(-c3cccc([C@H](O)CO)n3)cc2C1` the value was 440 nM.
One may read the Papp A→B as the apparent permeability from the apical to the basolateral side of a cell layer. Broadly, the Papp B→A is the apparent permeability from the basolateral to the apical side of a cell layer. Usually efflux ratio stands for the permeability from basolateral to apical divided by that in the opposite direction, in the common usage. Consider `CC(=O)N1CCN(c2ccc(C(F)(F)F)cc2)c2ccc(-c3cccc([C@H](O)CO)n3)cc2C1`, for which the solubility kinetic in data set [1] is 80 µM (≈ 37.7 µg/mL); in [2], 39 µM (≈ 18.4 µg/mL). Further, in [9], the Papp A→B worked out at 0.9 ×10⁻⁶ cm/s. In addition, in data set [10], the Papp B→A was 28.3 ×10⁻⁶ cm/s. In data set [11], the efflux ratio stood at 31. In addition, the Cmax in [4] was determined as 94 ng/mL. Also, 1 µM produced 13.9% inhibition in [5]. For the same molecule, the Tmax in [6] turned out to be 2.5 h. In data set [7], this molecule had an AUC of 562 ng·h/mL.
On to `NC(=O)c1cccc(-c2ccc3c(c2)CCCCN3c2ccc(C(F)(F)F)cc2)n1`, for which the values for the solubility kinetic in data set [1] and in [2] were 0.03 µM (≈ 0.0123 µg/mL) and 0.02 µM (≈ 0.00823 µg/mL), respectively.
On to `NC(=O)c1cccc(-c2ccc3c(c2)OCCCN3c2ccc(C(F)(F)F)cc2)n1`, for which the solubility kinetic in data set [1] and in [2] was 0.08 µM (≈ 0.0331 µg/mL) in each case.

Source of the values: ChEMBL document CHEMBL3576839, “N-Aryl azacycles as novel sodium channel blockers” (Bioorg Med Chem Lett, 2015).
